Source: ChEMBL document CHEMBL4257228, “Glucagon-like-peptide-2 (glp-2) analogues” (2016)
Values belong to the compound of their own block, whether it stands above or below them. Active and inactive are the calls of the source. The calls are words filed in the database; no cut-off is given here. Non-standard residues stand in square brackets, D forms with d. Residues, ends and D or L forms follow the SMILES beside them. Aib = CC(C)(N)C(=O)O

Experiments:
[1] = target: T1, Glucagon-like peptide 2 receptor (Homo sapiens, UniProt O95838); assay: Agonist activity at human GLP2 receptor expressed in HEK293 cells assessed as increase in intracellular cAMP accumulation by AlphaScreen assay; format: functional, cell-based
T1 sequence (O95838 whole entry): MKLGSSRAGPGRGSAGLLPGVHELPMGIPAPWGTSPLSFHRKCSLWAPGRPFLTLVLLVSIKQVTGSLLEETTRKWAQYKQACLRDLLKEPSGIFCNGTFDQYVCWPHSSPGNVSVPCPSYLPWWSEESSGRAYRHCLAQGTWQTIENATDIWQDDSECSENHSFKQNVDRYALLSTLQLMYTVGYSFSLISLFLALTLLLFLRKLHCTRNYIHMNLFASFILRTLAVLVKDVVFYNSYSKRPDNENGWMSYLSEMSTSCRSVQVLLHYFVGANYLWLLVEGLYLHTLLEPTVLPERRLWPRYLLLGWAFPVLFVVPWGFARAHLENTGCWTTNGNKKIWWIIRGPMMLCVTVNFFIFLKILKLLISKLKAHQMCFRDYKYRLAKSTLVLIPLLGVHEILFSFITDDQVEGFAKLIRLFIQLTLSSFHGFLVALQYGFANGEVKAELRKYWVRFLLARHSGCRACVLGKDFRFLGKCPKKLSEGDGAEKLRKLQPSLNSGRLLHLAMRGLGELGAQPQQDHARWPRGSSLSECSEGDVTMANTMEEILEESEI

[2] = system: Mus musculus; assay: Antidiabetic activity in C57BL/6J mouse assessed as reduction in blood glucose level at 1000 nmol/kg, sc administered as single dose 1 hr prior to glucose challenge measured up to 120 mins post glucose challenge by OGTT; format: functional, organism-based
[3] = system: Mus musculus; assay: Antidiabetic activity in diet-induced obese C57BL/6J mouse assessed as decrease in plasma insulin level at 250 to 500 nmol/kg, sc bid for 14 days fasted overnight on day 11 to 12 and measured on day 14; format: functional, organism-based
[4] = system: Mus musculus; assay: Antidiabetic activity in diet-induced obese C57BL/6J mouse assessed as decrease in fasting blood glucose level at 250 to 500 nmol/kg, sc bid for 14 days fasted overnight on day 11 to 12 and measured on day 14; format: functional, organism-based
[5] = system: Rattus norvegicus; assay: In vivo agonist activity at GLP2R in Wistar rat assessed as increase in small intestinal wet weight administered sc once daily for 4 days measured on day 5; format: functional, organism-based
[6] = system: Mus musculus; assay: Antidiabetic activity in diet-induced obese C57BL/6J mouse assessed as decrease in insulin resistance by measuring lower HOMA-IR index at 250 to 500 nmol/kg, sc bid for 14 days fasted overnight on day 11 to 12 and measured on day 14; format: functional, organism-based
[7] = system: Mus musculus; assay: In vivo agonist activity at GLP2R in diet-induced obese C57BL/6J mouse assessed as increase in large intestinal wet weight at 250 to 500 nmol/kg, sc bid for 14 days; format: functional, organism-based
[8] = system: Mus musculus; assay: In vivo agonist activity at GLP2R in diet-induced obese C57BL/6J mouse assessed as increase in small intestinal wet weight at 250 to 500 nmol/kg, sc bid for 14 days; format: functional, organism-based

- EC50 [1]: 0.12 nM
Compound: CC[C@H](C)[C@H](NC(=O)[C@H](Cc1ccccc1)NC(=O)[C@H](CC(=O)O)NC(=O)[C@H](CCCNC(=N)N)NC(=O)[C@H](C)NC(=O)[C@H](C)NC(=O)[C@H](CCC(N)=O)NC(=O)[C@H](CC(N)=O)NC(=O)[C@H](CC(=O)O)NC(=O)[C@H](CC(C)C)NC(=O)[C@@H](NC(=O)[C@@H](NC(=O)[C@H](CC(N)=O)NC(=O)[C@H](CCSC)NC(=O)[C@H](CCC(=O)O)NC(=O)[C@H](CC(=O)O)NC(=O)[C@H](CO)NC(=O)[C@H](Cc1ccccc1)NC(=O)[C@H](CO)NC(=O)CNC(=O)[C@H](CC(=O)O)NC(=O)C(C)(C)N)[C@@H](C)O)[C@@H](C)CC)C(=O)N[C@@H](CC(N)=O)C(=O)N[C@@H](Cc1c[nH]c2ccccc12)C(=O)N[C@@H](CC(C)C)C(=O)N[C@H](C(=O)N[C@@H](CCC(N)=O)C(=O)N[C@H](C(=O)N[C@@H](CCCCN)C(=O)N[C@H](C(=O)N[C@H](C(=O)N[C@@H](CC(=O)O)C(=O)O)[C@@H](C)O)[C@@H](C)CC)[C@@H](C)O)[C@@H](C)CC (H-[Aib]DGSFSDEMNTILDNQAARDFINWLIQTKITD-OH)

Compound: H-HGDGSFSDEMNTILDGQAARDFINWLIQTK-NH2
- Activity [2]: Active

Compound: H-HGDGSFSSELATILDGKAARDFINWLIQTKITD-OH
- Activity [3]: Active
- Activity [4]: Active
- Activity [5]: Dose-dependent effect
- Activity [6]: Active
- Activity [7]: Active
- Activity [8]: Active
